Laboratory results from patent US9216962B2 (priority 2011, dated 2015).

Biological target: recombinant human HDAC1 (Homo sapiens (Human), UniProt Q13547)
Details: not given

Chain of recombinant human HDAC1 (Q13547 whole entry): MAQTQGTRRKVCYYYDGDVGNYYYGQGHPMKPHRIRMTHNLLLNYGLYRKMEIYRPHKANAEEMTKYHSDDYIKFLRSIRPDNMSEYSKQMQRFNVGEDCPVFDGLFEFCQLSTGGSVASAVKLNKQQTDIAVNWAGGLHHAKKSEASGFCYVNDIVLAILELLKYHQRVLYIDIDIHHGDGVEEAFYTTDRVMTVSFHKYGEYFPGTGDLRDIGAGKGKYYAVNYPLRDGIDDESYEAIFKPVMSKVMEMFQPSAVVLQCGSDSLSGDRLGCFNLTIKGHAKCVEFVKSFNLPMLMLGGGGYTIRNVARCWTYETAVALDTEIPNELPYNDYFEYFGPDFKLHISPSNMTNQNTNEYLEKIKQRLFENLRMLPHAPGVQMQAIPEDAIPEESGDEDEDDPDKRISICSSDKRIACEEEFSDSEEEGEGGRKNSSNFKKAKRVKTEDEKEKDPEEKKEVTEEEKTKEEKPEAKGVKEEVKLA

`CC(C)Cc1sc(-c2nccs2)nc1C(=O)NCC(=O)NO` [CFH340] was tested, and the “HDAC1 IC50” value was “NA^a”.

Same assay, conditions: read-out: HDAC1 IC50

Point of comparison: `Cc1nc(-c2nc(C(=O)NCCCCC(=O)NO)c(C3CC3)s2)sc1C` [CFH395-M], IC50 0.05 µM. Against it:
- CC(C)Cc1sc(-c2nccs2)nc1C(=O)NCCCCC(=O)Nc1ccccc1N [CFH494] — 120-fold higher, 5.91 µM
- Cc1cnc(-c2nc(C(=O)NCCCCC(=O)NO)c(CC(C)C)s2)s1 [CFH397-2] — 18-fold higher, 0.917 µM
- CC(C)Cc1sc(-c2nccs2)nc1C(=O)NCCCCCC(=O)Nc1ccccc1N [CFH508] — 20-fold higher, 0.984 µM
- CC(C)Cc1sc(-c2nccs2)nc1C(=O)Nc1cccc(/C=C/C(=O)NO)c1 [CFH429] — 13-fold higher, 0.657 µM
- CC(C)Cc1sc(-c2nccs2)nc1C(=O)NCCCCCCC(=O)NO [CFH410] — 3.6-fold higher, 0.178 µM
- C=Cc1sc(-c2nccs2)nc1C(=O)NCCCNC(=O)CS [CFH367-S] — 37-fold higher, 1.83 µM
- O=C(CCCCNC(=O)c1nc(-c2ncc(-c3ccccc3)s2)sc1C1CC1)NO [CFH443-5] — 1.6-fold lower, 0.032 µM
- CC(C)Cc1sc(-c2nccs2)nc1C(=O)NCCCCCCC(=O)Nc1ccccc1N [CFH522] — 310-fold higher, 15.3 µM
- Cc1nc(-c2nc(C(=O)NCCCCC(=O)NO)c(CC(C)C)s2)cs1 [CFH397] — 8.8-fold higher, 0.438 µM
- CC(C)/C=C/c1sc(-c2nccs2)nc1C(=O)NCCCNC(=O)CS [CFH411] — 19-fold higher, 0.956 µM
